In US20080075786A1, “Antimicrobial agents derived from cream” (Universite de Montreal, priority 2006, published 2008):
Read-outs that look alike come from different tables or passages of the source.

Legend:
[1] = test system: Peripheral Blood Mononuclear cells (PBMC); assay: in vitro; conditions: human, 24 h
Protocol: (§1) Cytotoxicity was evaluated using Peripheral Blood Mononuclear cells (PBMC) of volunteers donors (Royal Victoria Hospital, Montreal). These cells were purified by the ficoll-Paque PLUS according to the manufacturer (Amersham-Bioscience). PBMC were used at a density of 100 000 cells/ml in RPMI 1640 (Sigma) supplemented with 10% heat-inactivated fetal bovine serum, 0.3 g/L of L-glutamine, 2 g/L sodium carbonate, 100 U/ml of penicillin and 100 μg/ml of streptomycin (Sigma). Assays were done in 96-well microtiter plates (Costar 3595) and the cytotoxicity was evaluated after 24 hours of incubation at 37° C. in a 5% CO2 atmospheric incubator using the LDH Cytotoxicity detection kit, according to the manufacturer (Roche Diagnostic). […] FFA were diluted in ethanol (96%) and no more than 1% ethanol (final concentration) was used in assays. Ethanol (1%) was used as negative control.
(§2) This method measures the release of lactate dehydrogenase (LDH) from the cytosol of damaged cells into the supernatant (Roche Diagnostic).

[2] = in vitro; conditions: human, Toxicity (TC50) PBMCs
Protocol: as §1, §2

[3] = test system: Candida albicans SC5314 strain; assay: Germination inhibition assay (antihyphal growth activity); format: cell-based; conditions: for MIC: commercial free fatty acids, gravimetrical quantification, read-out: MIC, antihyphal growth activity of individual free fatty acids
Protocol: The Candida albicans SC5314 strain (Fonzi, W. A. and Irwin, M. Y. 1993. Isogenic strain construction and gene mapping in Candida albicans. Genetics 134: 717-728.) was used to investigate the antihyphal activity of whey cream lipids. This strain was routinely grown as yeast cells at 30° C. in YPD medium (1% yeast extract, 2% peptone, 2% dextrose). Germination was induced by incubating cells in dextrose-free Sabouraud (Difco; Joshi, K. R., Gavin, J. B., and Bremner, D. A. 1973. The formation of germ tubes by Candida albicans in various peptone media. Sabouraudia. 11: 259-262.) at 37° C. in 96-wells microtiter plates (Costar 3595). Briefly, cells from fresh YPD cultures were harvested and washed twice with sterile water. Washed cells were suspended in dextrose-free Sabouraud at a density of 5×10^3 cells/ml and then immediately distributed to microtiter wells containing an equal volume of dextrose-free Sabouraud supplemented with different concentrations of lipids. After 15 h incubation at 37° C. in an atmospheric incubator without agitation, cells were washed and fixed with a fresh 1% formaldehyde solution. The ability of lipids to inhibit germination was determined by microscopic observations.

[4] = test system: mammalian cells; assay: Toxicity for mammalian cells in vitro; format: cell-based; conditions: thousand fold less concentrated solution than 10 mM; Bergsson et al., 2001; data not shown
[5] = test system: C. albicans SC5314 strain; assay: Antifungal assay against C. albicans (optical density at 630 nm); format: cell-based, Candida albicans; conditions: dextrose-free Sabouraud, 37° C., commercial FFA
Protocol: (§3) Fractionation of Blackcurrant Seed Oil. Journal of the American Oil Chemists Society 65: 755-760). […] Under constant stirring, the mixture was heated to 75° C., or until it became clear, and then cooled slowly to 2° C. After completion of urea crystallization at 2° C. (15 h), the UFFA enriched methanol phase was separated from the urea crystals by centrifugation (5 min) at 1000×g. […] Yields were determined gravimetrically. […] UV detection was used to monitor effluent at 215 nm. Water (10 ml) was added to each of the 45 collected HPLC fractions, and they were then extracted three times with hexane (3×10 ml). […] Antifungal assay using commercial FFA were done in quadruplicates. The antifungal activity was evaluated in 96-well microtiter plates (Costar 3595) using Sabouraud as incubating medium for A. fumigatus and dextrose-free Sabouraud for C. albicans. Spores of A. fumigatus (Jeanine Joly, Université de Montréal) were germinated at 25° C. on slant agar Sabouraud media. They were harvested by washing vigorously slant cultures with 5 ml of 0.9% NaCl. Coarse debris were removed by filtrating the Aspergillus spores suspension through a sterile cotton plugs inserted into a Pasteur pipet. Monodisperse spores suspensions were obtained following brief sonications in a water bath sonicator (Branson 1210). […] Blastospores of the C. albicans SC5314 strain were prepared as for germination inhibition assays (see above). […] Wells were washed three times with Sabouraud before optical reading.

[6] = test system: A. fumigatus; assay: Antifungal assay against A. fumigatus (optical density at 630 nm); format: cell-based; conditions: Aspergillus fumigatus; Sabouraud, 30° C., 40 h; commercial FFA
Protocol: as §3

[7] = test system: C. albicans yeast cells; conditions: 10 mM; cited from earlier work
[8] = test system: Candida albicans ZK3379 strain (CAI-4 HWP1-lacZ); assay: C. albicans HWP1-lacZ beta-galactosidase and XTT assays (kinetics of germination inhibition in hyphae inducing media); format: cell-based
Protocol: Candida albicans ZK3379 strain (CAI-4 HWP1-lacZ; Hogan, D A, Vik A, Kolter R (2004). A Pseudomonas aeruginosa quorum-sensing molecule influences Candida albicans morphology. Mol Microbiol 54: 1212-1223.) was used for beta-galactosidase and XTT assays. Cells from this strain were grown in YPDA at 30° C. to a density of about 1×10^8 cells/ml (hemacytometer). These late exponentially growing cells were then washed twice with water and kept on ice until used. Germination was induced by incubating cells (final density of 5×10^5 cells/ ml) at 37° C. in 2.5 ml of either dextrose-free Sabouraud (Joshi et al., 1973), Lee's (Lee K L, Buckley H R, Campbell C C (1975). An amino acid liquid synthetic medium for the development of mycelial and yeast forms of Candida albicans. Sabouraudia 13: 148-153, Spider (Liu H, Kohler J, Fink Gr (1994). Suppression of hyphal formation in Candida albicans by mutation of a STE12 homolog. Science 266: 1723-1726 or Hypha-Forming Media (Biswas S K, Yokoyama K, Kamei K, Nishimur K, Miyaji M (2001) Inhibition of hyphal growth of Candida albicans by activated lansoprazole, a novel benzimidazole proton pump inhibitor Med Mycol 39: 283-285.), supplemented with FFAs. All lipids were dissolved in ethanol. Assays were performed in duplicate in 24-wells mictotiter plates (Costar 3526) without agitation. After appropriate incubation times (i.e. 0, 2, 4 or 6 h), microtiter plates were centrifuged for 5 min at 2000 rpm (Jouan inc. CR3i) and supernatents, discarded. XTT assays were done immediately and essentially as described (Honraet K, Goetghebeur E, Nelis H J (2005). Comparison of three assays for the quantification of Candida biomass in suspension and CDC reactor grown biofilms. J Microbiol Methods 63: 287-295). For beta-galactosidase assays, microtiter plates were frozen at −80° C. and processed later as described (Kippert F (1995). A rapid permeabilization procedure for accurate quantitative determination of beta-galactosidase activity in yeast cells. FEMS Microbiol Lett 128: 201-206; Hogan et al., 2004) but directly in microtiters plates. Absorbances were measured in 96-well microtiters plates using a microtiter plate reader (Microplate Reader MR600), equipped with filters of 410 nm (beta-galactosidase) and 490 nm (XTT), respectively.
As inhibition of germination of C. albicans by molecules could be the result of early and/or late blocking events, a more comprehensive analysis of the activity of free fatty acids was performed using multiple time points and other germ tube inducing media. Therefore, germination was monitored at 0, 2, 4 and 6 h in dextrose-free Sabouraud, Lee's, Spider and HFM7 (i.e. serum) media using the C. albicans HWP1-lacZ assay: beta-galactosidase measurements should reflect the morphological change from yeast cells to hyphal growth (Hogan et al., 2004). beta-galactosidase results were normalized using the XTT assay (Honraet et al., 2005) to correct for biomass increase. Microscopic observations of cells after 6 h incubation are also presented for each inducing conditions and correlated with beta-galactosidase data (FIG. 2).

[9] = Candida albicans, SC5314, complete inhibition of germination, 15 h, 37° C.
[10] = Candida albicans, SC5314, same MIC in μg/ml (in brackets)

CCCCCCCCCC(=O)O [Capric acid (C10:0), capric acid]
TC50, PBMC [1]: about 1.4 mM | CC50 at 24 h [2]: 1430 ± 32 µM | MIC [3, 9]: 9 µM | MIC [3, 10]: 1.55 µg/mL | activity at inhibiting C. albicans germination ([3]; individual commercial free fatty acids, highest concentration used 81 μM): similarly active to lauric acid | toxicity for mammalian cells in vitro [4]: not toxic | IC50 ([5]; Candida albicans, SC5314, 40 h): 182 µM | IC50 [6]: 127 µM | killing C. albicans yeast cells [7]: highly active | germ tube emergence and elongation ([8]; all inducing conditions tested (dextrose-free Sabouraud, Lee's, Spider, HFM7), 0-6 h (FIG. 2)): completely inhibited the emergence of germ tubes

CCCC/C=C\CCCCCCCC(=O)O [Myristoleic acid (C14:1n-5), myristoleic acid]
CC50 [1]: 71.9 ± 6.2 µM | CC50 at 24 h [2]: 72 µM | MIC [3, 9]: 9 µM | MIC [3, 10]: 2.04 µg/mL | MIC ([3]; complete inhibition of germination, 15 h, 37° C.): 9 µM | IC50 ([5]; Candida albicans, SC5314, 40 h): 82 µM | IC50 ([5]; 40 h): 81.9 ± 9.2 µM | IC50 [6]: 192 µM | appearance of germ tubes ([8]; Spider and HFM7 media): partially inhibited the appearance of germ tubes | appearance of germ tubes ([8]; dextrose-free Sabouraud and Lee's inducing media): strongly inhibited the appearance of germ tubes
